According to patent US20240123022A1, “A STABLE ANTI-ANGIOGENIC AND ANTI-INFLAMMATORY PHARMACEUTICAL FORMULATION AND PHARMACEUTICAL COMBINATION FOR TREATMENT AND PREVENTION OF PSORIASIS” (priority 2021, published 2024):

How the values were obtained:
[1] = tested on: P-VEGFR-2, VEGFR-2, NRP-1, Akt, p-NRP1, P-Akt, ERK1/2, P-ERK1/2, p-38, P-p-38; assay: Biomarker estimation by western blotting; type: cell-based; details: 500 and 1000 μg/ml, western blot
Source text: Targets screened are as follows: P-VEGFR-1, P-VEGFR-2, P-VEGFR-3, VEGFR-1, VEGFR-2, VEGFR-3, NRP-1, MPO, Akt, PAkt, ERK1/2, P-ERK1/2, MAPK, p-38, P-p-38, p-NRP1 and GAPDH.

[2] = Plasma stability in human plasma; type: in vitro ADME
Protocol: Following centrifugation, the supernatant was analyzed on HPLC-UV.

[3] = tested on: isolated rabbit erythrocyte; type: cell-based
Protocol: This study was conducted to test whether IS217 induced haemolysis or not. The study was conducted in IV intended concentration.

[4] = tested on: Imiquimod (IMQ) induced psoriasis model using Balb/c mice; assay: IMQ induced psoriasis model, routes of administration (SC, IM, IV, IP); type: in vivo; details: for TNF-α reduced to / reduction in IL-23: ear homogenate
Protocol: The study was conducted in healthy, adult female Balb/c mice. All the animals were acclimatized to laboratory condition prior to experiment initiation.
Animals were randomized into 10 groups containing 6 animals each group, based on their body weight. Approximately 63 mg of IMQ cream (5%) (containing 3.125 mg of IMQ) was weighed and applied topically each on dorsal area (shaved back) and right ear of mice for 8 days in group 3-10. Groups 1 and 2 were served as controls and were treated with appropriate vehicle. Later groups 1 and 2 were merged for better calculation purpose.
Body weight, ear thickness and dorsal skin thickness was measured daily using digital caliper. Erythema index was recorded by mexameter and clinical scoring was also done daily for dorsal psoriatic area.
On day 9, animals were anesthetized for blood collection followed by euthanasia by C02 asphyxiation as per in-house approved standard protocol.
About 4 mm ear punch biopsy was collected, weighed and fixed in about 10% neutral buffer formalin for histopathological analysis (via H and E staining). Remaining ear was excised and stored at about −80° C. for inflammatory cytokine analysis. Dorsal skin was also collected, and half was kept in formalin. Spleen was also collected and weighed and kept in formalin.
In this study three different routes i.e., SC, IM and IV at different doses ranging from 0.3, 0.6 and 1.2 mg/kg were used to see dose response curve, the results were as follows: […]

[5] = Stability of IS217 API, accelerated condition 5 ± 3° C.; type: physicochemical
Protocol: The purpose of stability testing is to provide evidence on how the quality of a drug substance or drug product varies with time under the influence of a variety of environmental factors such as temperature, humidity, etc. and to establish a re-test period for the drug substance or a shelf life for the drug product and recommended storage conditions. The study was conducted according to the WHO and Schedule-Y guidelines.
The drug substance is a lyophilized white fluffy powder, and it was filled at sterile condition in glass injection vial which has airlock-rubber capping. This container closure system is the same as or simulates the packaging proposed for storage and distribution.
This study has included testing of those attributes of the drug substance that are susceptible to change during storage and are likely to influence quality, safety and/or efficacy. The testing was covered, as appropriate, the physical and chemical attributes.
The following test attributes have been selected according to above said guidelines. • Appearance; odour; colour; colour of solution (when the drug substance is soluble in solvent); clarity of solution; degradation and assessment of container closure system
The studies were conducted under appropriate storage conditions (with appropriate tolerances) that test drug substance thermal stability and its sensitivity to moisture. The drug substance is intended to store for 24 months. Accordingly, long term stability studies were done for 24 months. The details of the storage conditions have been furnished hereunder.
Name of the product: IS217; Batch size: 200 m·mol; Storage conditions: 5±3° C.

H-FAKKFAKKFK-OH [IS217, H-Phe-Ala-Lys-Lys-Phe-Ala-Lys-Lys-Phe-Lys-OH]
protein levels of P-VEGFR-2, VEGFR-2, NRP-1, Akt, p-NRP1, P-Akt, ERK1/2, P-ERK1/2, p-38, P-p-38 [1]: downregulated | remaining at 0.25 h, 100 μg/ml ([2]; human plasma, 15 minutes, read-out: IS217 remaining): 90.7% | remaining at 0.5 h, 100 μg/ml ([2]; human plasma, 30 minutes, read-out: IS217 remaining): 105% | remaining at 0.75 h, 100 μg/ml ([2]; human plasma, 45 minutes, read-out: IS217 remaining): 85.2% | remaining at 1 h, 100 μg/ml ([2]; human plasma, 60 minutes, read-out: IS217 remaining): 91.1% | plasma stability ([2]; human, plasma): stable in human plasma | half-life at 100 μg/ml ([2]; human, plasma, from 60 minutes incubation, read-out: calculated half-life in human plasma): 416 min | mean hemoglobin value compared with negative control and positive control [3]: non-significant | mean haemolytic index ([3]; red cells of rabbit): 0% | ear biopsy weight ([4]; 0.3 mg/kg SC, day 9, vs other doses and routes): maximum effect | hyperkeratosis, edema, inflammatory cell infiltration and ear thickness in histopathology examination of ear ([4]; 0.3 mg/kg SC, p < 0.01): reduced | TNF-α reduced to ([4]; 0.6 mg/kg): 13.94% | reduction in IL-23 ([4]; 0.6 mg/kg): 49.68% | TNF-α level in ear tissue homogenate ([4]; 1.2 mg/kg SC): partially reduced | TNF-α and IL-23 levels, rete peg proliferation in histopathology examination of ear ([4]; 1.2 mg/kg SC, p < 0.01): dose lowered | absolute ear thickness reduction, maximum inhibition ([4]; 1.2 mg/kg dose): 80.36% | TNF-α reduced to ([4]; 1.2 mg/kg): 24.25% | reduction in IL-23 ([4]; 1.2 mg/kg): 59.85% | reduction of IL-23 levels ([4]; 0.3-1.2 mg/kg SC, by all above observations): prominent dose dependent results | percentage inhibition of ear inflammation, maximum inhibitory activity ([4]; IM route): 59.12% | body weight ([4]; IS217 SC, IM, IV, IP, 8 days): No significant change | IL-17 in ear tissue homogenate ([4]; IV treatment): maximum inhibition | spleen weight reduction ([4]; IV treatment group, not statistically significant): maximum reduction | spleen weight reduction ([4]; SC treatment groups): No effect | IMQ induced hyperkeratosis, edema, Rete Peg proliferation, inflammatory cell infiltration (ear histopathology) ([4]; SC, low dose of 0.3 mg/kg): maximum reduction | cumulative psoriatic score of dorsal area ([4]; any treatment group): No significant reduction | erythema index ([4]; any treatment group): No significant reduction | percentage inhibition of ear inflammation, maximum inhibitory response ([4]; low dose, from day 6): 32.08% | IL-17A and spleen weight ([4]; mouse, in vivo): no trend | API calculated on the anhydrous basis (OAB) ([5]; 5 ± 3° C., 1 M): 99.36% | Related substances (By HPLC), Any Max. Impurity ([5]; 5 ± 3° C., 1 M): 0.52% | Related substances (By HPLC), Total Impurity ([5]; 5 ± 3° C., 1 M): 0.63% | Solubility (Soluble in water) ([5]; 5 ± 3° C., 1 M): Complies | Water Content (By Karl Fischer-Titrator) ([5]; 5 ± 3° C., 1 M): 4.61% w/w | Appearance, change ([5]; 5 ± 3° C., 1st month): No change | Assessment of container closure system, change ([5]; 5 ± 3° C., 1st month): No change | Clarity of solution, change ([5]; 5 ± 3° C., 1st month): No change | Color of Solution, change ([5]; 5 ± 3° C., 1st month): No change | Color, change ([5]; 5 ± 3° C., 1st month): No change | Odor, change ([5]; 5 ± 3° C., 1st month): No change | API calculated on the anhydrous basis (OAB) ([5]; 5 ± 3° C., 2 M): 99.25% | Related substances (By HPLC), Any Max. Impurity ([5]; 5 ± 3° C., 2 M): 0.53% | Related substances (By HPLC), Total Impurity ([5]; 5 ± 3° C., 2 M): 0.76% | Solubility (Soluble in water) ([5]; 5 ± 3° C., 2 M): Complies | Water Content (By Karl Fischer-Titrator) ([5]; 5 ± 3° C., 2 M): 4.55% w/w | Appearance, change ([5]; 5 ± 3° C., 2nd month): No change | Assessment of container closure system, change ([5]; 5 ± 3° C., 2nd month): No change | Clarity of solution, change ([5]; 5 ± 3° C., 2nd month): No change | Color of Solution, change ([5]; 5 ± 3° C., 2nd month): No change | Color, change ([5]; 5 ± 3° C., 2nd month): No change | Odor, change ([5]; 5 ± 3° C., 2nd month): No change | API calculated on the anhydrous basis (OAB) ([5]; 5 ± 3° C., 3 M): 99.06% | Related substances (By HPLC), Any Max. Impurity ([5]; 5 ± 3° C., 3 M): 0.59% | Related substances (By HPLC), Total Impurity ([5]; 5 ± 3° C., 3 M): 0.94% | Solubility (Soluble in water) ([5]; 5 ± 3° C., 3 M): Complies | Water Content (By Karl Fischer-Titrator) ([5]; 5 ± 3° C., 3 M): 4.60% w/w | Appearance, change ([5]; 5 ± 3° C., 3rd month): No change | Assessment of container closure system, change ([5]; 5 ± 3° C., 3rd month): No change | Clarity of solution, change ([5]; 5 ± 3° C., 3rd month): No change | Color of Solution, change ([5]; 5 ± 3° C., 3rd month): No change | Color, change ([5]; 5 ± 3° C., 3rd month): No change | Odor, change ([5]; 5 ± 3° C., 3rd month): No change | API calculated on the anhydrous basis (OAB) ([5]; 5 ± 3° C., 6 M): 99.22% | Related substances (By HPLC), Any Max. Impurity ([5]; 5 ± 3° C., 6 M): 0.43% | Related substances (By HPLC), Total Impurity ([5]; 5 ± 3° C., 6 M): 0.78% | Solubility (Soluble in water) ([5]; 5 ± 3° C., 6 M): Complies | Water Content (By Karl Fischer-Titrator) ([5]; 5 ± 3° C., 6 M): 4.62% w/w | Appearance, change ([5]; 5 ± 3° C., 6th month): No change | Assessment of container closure system, change ([5]; 5 ± 3° C., 6th month): No change | Clarity of solution, change ([5]; 5 ± 3° C., 6th month): No change | Color of Solution, change ([5]; 5 ± 3° C., 6th month): No change | Color, change ([5]; 5 ± 3° C., 6th month): No change | Odor, change ([5]; 5 ± 3° C., 6th month): No change | API calculated on the anhydrous basis (OAB) ([5]; 5 ± 3° C., Initial): 99.28% | Related substances (By HPLC), Any Max. Impurity ([5]; 5 ± 3° C., Initial): 0.60% | Related substances (By HPLC), Total Impurity ([5]; 5 ± 3° C., Initial): 0.72% | Remark ([5]; 5 ± 3° C., Initial): Complies | Solubility (Soluble in water) ([5]; 5 ± 3° C., Initial): Complies | Water Content (By Karl Fischer-Titrator) ([5]; 5 ± 3° C., Initial): 4.66% w/w | stability of IS217 API ([5]; 6 months at accelerated condition 5 ± 3° C.): stable | stability of drug substance ([5]; refrigerator (5 ± 3° C.) conditions for 24 months, concluded from Tables 13 to 16): stable
